For series [1], the system named is Human immunodeficiency virus 1. Briefly: microbe, parasite or virus in culture. Type of series: functional, organism-based. The following applies: Human immunodeficiency virus 1, 3B, CCRF-CEM.
Description: Antiviral activity against HIV1 3B infected in human CEM/0 cells assessed as inhibition of viral-induced giant cell formation incubated for 4 to 5 days by microscopy
The nature of series [2]: Cytotoxicity in human CEM/0 cells assessed as reduction in cell viability incubated for 4 to 5 days.
Series [3] can be described thus: Stability in aqueous 25 mM PBS at pH 7.3 assessed as hydrolysis half life by HPLC analysis. Format: physicochemical.
A short description of series [4]: Stability in human CEM/0 cell extracts assessed as hydrolysis half life by HPLC analysis. Type of series: ADME, CCRF-CEM.
Another series deals with pig liver esterase. Kind of series: Stability in pH 7.3 PBS assessed as pig liver esterase mediated hydrolysis by measuring half life by HPLC analysis. Format: ADME, Sus scrofa.

The source of these data is ChEMBL document CHEMBL4610119, “Lipophilic Triphosphate Prodrugs of Various Nucleoside Analogues” (J Med Chem, 2020).

Bounds are passed on as bounds.

As a reminder, the EC50 is the concentration at which the effect is half-maximal. Low values mean greater potency, high ones weaker potency. The term CC50 denotes the concentration giving 50% cytotoxicity. Usually half-life stands for how long it takes for the measured level to halve.

`Cc1cn([C@H]2C[C@H](N=[N+]=[N-])[C@@H](CO)O2)c(=O)[nH]c1=O` [ZIDOVUDINE] yielded an EC50 in series [1] of 5 nM. Besides, the CC50 in series [2] (CEM/0 cells) was greater than 100 µM.

On to `O=c1[nH]c(=O)n([C@H]2C[C@H](O)[C@@H](CO)O2)cc1/C=C/Br` [BRIVUDINE], for which the EC50 in series [1] is greater than 250000 nM. Also, the CC50 in series [2] (CEM/0 cells) was determined as 207 µM.

As for `CCCCCCCCCCCCCCCCOC(=O)Oc1ccc(COP(=O)(OCc2ccc(OC(=O)CC)cc2)OP(=O)(O)OP(=O)(O)OC[C@@H]2C=C[C@H](n3cc(C)c(=O)[nH]c3=O)O2)cc1` (some centres not stated), in series [1], the EC50 turned out to be 27 nM.

For the molecule `CCCCCCCCCCCCCCCCOC(=O)Oc1ccc(COP(=O)(O)OP(=O)(O)OP(=O)(O)OC[C@H]2O[C@@H](n3cc(Cl)c(=O)[nH]c3=O)C[C@@H]2F)cc1`, the half-maximal effective concentration (EC50) in series [1] was determined as 2500 nM. The CC50 in series [2] (CEM/0 cells) was 54 µM.

With `CCCCCCCCCCCCCCCCOC(=O)Oc1ccc(COP(=O)(OCc2ccc(OC(=O)CCCC)cc2)OP(=O)(O)OP(=O)(O)OC[C@H]2O[C@@H](n3cc(/C=C/Br)c(=O)[nH]c3=O)C[C@@H]2O)cc1.N.N` (some centres not stated), the results for the half-life (in series [3]; in series [4]; in the series on pig liver esterase) were 2.58 days, 78.6 min and 420 min, respectively. In series [1], this molecule came in with an EC50 of 1490 nM. Moreover, in series [2] (CEM/0 cells), the CC50 came out at 43 µM.

In series [1], `[N-]=[N+]=N[C@@H]1C[C@H](n2cc(Cl)c(=O)[nH]c2=O)O[C@@H]1CO` registered an EC50 greater than 100000 nM. Also, in series [2] (CEM/0 cells), the CC50 was greater than 100 µM.

For the molecule `CCCCCCCCCCCCCCCCOC(=O)Oc1ccc(COP(=O)(OCc2ccc(OC(=O)CC)cc2)OP(=O)(O)OP(=O)(O)OC[C@H]2O[C@@H](n3cc(Cl)c(=O)[nH]c3=O)C[C@@H]2F)cc1.N.N` (some centres not stated), the half-life in series [3] was 2.33 days; in series [4], 98.4 min. This molecule returned an EC50 in series [1] of 1280 nM. Moreover, the CC50 in series [2] (CEM/0 cells) came to 42 µM.

As for `CCCCCCCCCCCCCCCCOC(=O)Oc1ccc(COP(=O)(OCc2ccc(OC(=O)CCCC)cc2)OP(=O)(O)OP(=O)(O)OC[C@@H]2O[C@H](n3cc(F)c(N)nc3=O)CS2)cc1.N.N` (some centres not stated), the half-life was 1.5 days in series [3], 167 min in series [4] and 136 min in the series with pig liver esterase. In addition, a half-maximal effect in series [1] (EC50) was put at 4.3 nM. For the same molecule, the CC50 in series [2] (CEM/0 cells) was 40.5 µM.

For the molecule `Cc1cn([C@@H]2C[C@H](CO)[C@@H](O)C2)c(=O)[nH]c1=O`, the EC50 in series [1] was 36000 nM. The CC50 in series [2] (CEM/0 cells) is greater than 250 µM.

Turning to `CCCCCCCCCCCCCCCCOC(=O)Oc1ccc(COP(=O)(OCc2ccc(OC(=O)CCCC)cc2)OP(=O)(O)OP(=O)(O)OC[C@@H]2C=C[C@H](n3cc(C)c(=O)[nH]c3=O)O2)cc1` (some centres not stated), the midpoint of the response in series [1], the EC50, lay at 32 nM. That is a double-digit nanomolar value.

In turn, `Cc1cn([C@H]2C[C@H](O)[C@@H](CO)O2)c(=O)[nH]c1=O` [DOXRIBTIMINE] yielded an EC50 in series [1] of 4110 nM. For the same molecule, the CC50 in series [2] (CEM/0 cells) is 10.6 µM.

With `CCCCCCCCCCCCCCCCOC(=O)Oc1ccc(COP(=O)(OCc2ccc(OC(=O)CC)cc2)OP(=O)(O)OP(=O)(O)OC[C@H]2O[C@@H](n3cc(/C=C/Br)c(=O)[nH]c3=O)C[C@@H]2O)cc1.N.N` (some centres not stated), in series [3], the half-life is 2.33 days. For the same molecule, the midpoint of the response in series [1], the EC50, lay at 11200 nM. In series [2] (CEM/0 cells), the CC50 was 43 µM.

For the molecule `CCCCCCCCCCCCCCCCOC(=O)Oc1ccc(COP(=O)(OCc2ccc(OC(=O)CC)cc2)OP(=O)(O)OP(=O)(O)OC[C@H]2O[C@@H](n3cc(C)c(=O)[nH]c3=O)C[C@@H]2O)cc1.N.N` (some centres not stated), the half-life in series [3] is 3.17 days. Further, the EC50 in series [1] is 10800 nM. For the same molecule, in series [2] (CEM/0 cells), the CC50 worked out at 14 µM.

In series [1], `Cc1cn([C@H]2C=C[C@@H](CO)O2)c(=O)[nH]c1=O` [STAVUDINE] came in with an EC50 of 430 nM. The CC50 in series [2] (ccrf-cem) is greater than 50 µM.

In the case of `CCCCCCCCCCCCCCCCOC(=O)Oc1ccc(COP(=O)(OCc2ccc(OC(=O)CC)cc2)OP(=O)(O)OP(=O)(O)OC[C@H]2O[C@@H](n3ccc(=O)[nH]c3=O)C[C@H]2N=[N+]=[N-])cc1.N.N` (some centres not stated), the half-life in series [3] was 2.83 days; in series [4], 92.4 min. The same molecule displayed an EC50 in series [1] greater than 44000 nM. For the same molecule, in series [2] (CEM/0 cells), the CC50 amounted to 44 µM.

Take `CCCCCCCCCCCCCCCCOC(=O)Oc1ccc(COP(=O)(OCc2ccc(OC(=O)CC)cc2)OP(=O)(O)OP(=O)(O)OC[C@H]2O[C@@H](n3cc(C)c(=O)[nH]c3=O)C[C@@H]2N=[N+]=[N-])cc1.N.N` (some centres not stated): the half-life in series [3] is 3.46 days. The molecule further registered an EC50 in series [1] of 9.4 nM. Further, the CC50 in series [2] (CEM/0 cells) was found to be 48 µM.

Take `CCCCCCCCCCCCCCCCOC(=O)Oc1ccc(COP(=O)(OCc2ccc(OC(=O)CC)cc2)OP(=O)(O)OP(=O)(O)OC[C@H]2C[C@@H](n3cc(C)c(=O)[nH]c3=O)C[C@@H]2O)cc1.N.N` (some centres not stated): in series [3], the half-life is 3.08 days. The midpoint of the response in series [1], the EC50, lay at 520 nM. Further, the CC50 in series [2] (CEM/0 cells) worked out at 36 µM.

Take `CCCCCCCCCCCCCCCCOC(=O)Oc1ccc(COP(=O)(OCc2ccc(OC(=O)CCCC)cc2)OP(=O)(O)OP(=O)(O)OC[C@@H]2CC[C@H](n3cnc4c(=O)[nH]cnc43)O2)cc1.N.N` (some centres not stated): the half-life in series [3] is 1.71 days; in series [4], 94.2 min; in the series on pig liver esterase it was 210 min. In series [1], this molecule had an EC50 of 930 nM. Further, in series [2] (CEM/0 cells), the CC50 is 43 µM.

For `CCCCCCCCCCCCCCCCOC(=O)Oc1ccc(COP(=O)(OCc2ccc(OC(=O)CC)cc2)OP(=O)(O)OP(=O)(O)OC[C@H]2O[C@@H](n3cc(Cl)c(=O)[nH]c3=O)C[C@H]2N=[N+]=[N-])cc1.N.N` (some centres not stated), the half-life in series [3] is 2.79 days; in series [4], 151 min; with pig liver esterase, 180 min. This molecule also came in with an EC50 in series [1] greater than 45000 nM. The CC50 in series [2] (CEM/0 cells) came to 45 µM.

As for `[N-]=[N+]=N[C@@H]1C[C@H](n2ccc(=O)[nH]c2=O)O[C@@H]1CO`, the EC50 in series [1] was greater than 250000 nM. Moreover, in series [2] (CEM/0 cells), the CC50 is greater than 250 µM.

As for `CCCCCCCCCCCCCCCCOC(=O)Oc1ccc(COP(=O)(OCc2ccc(OC(=O)CCCC)cc2)OP(=O)(O)OP(=O)(O)OC[C@H]2O[C@@H](n3cc(C)c(=O)[nH]c3=O)C[C@@H]2N=[N+]=[N-])cc1.N.N` (some centres not stated), the half-life is 3.5 days in series [3], 300 min in series [4] and 240 min in the series on pig liver esterase. Also, in series [1], the EC50 came out at 3.7 nM. Further, the CC50 in series [2] (CEM/0 cells) was 42 µM.

As to `CCCCCCCCCCCCCCCCOC(=O)Oc1ccc(COP(=O)(OCc2ccc(OC(=O)CCCC)cc2)OP(=O)(O)OP(=O)(O)OC[C@H]2O[C@@H](n3cc(Cl)c(=O)[nH]c3=O)C[C@@H]2F)cc1.N.N` (some centres not stated), the half-life in series [3] was 2.75 days. Further, in series [1], a half-maximal response (EC50) required 2590 nM. In addition, the CC50 in series [2] (CEM/0 cells) amounted to 42 µM.

Turning to `O=c1[nH]cnc2c1ncn2[C@H]1CC[C@@H](CO)O1` [DIDANOSINE], in series [1], a half-maximal response (EC50) required 16000 nM. Further, in series [2] (CEM/0 cells), the CC50 was greater than 250 µM.

The molecule `Nc1nc(=O)n([C@@H]2CS[C@H](CO)O2)cc1F` [EMTRICITABINE] registered an EC50 in series [1] of 10 nM. Also, the CC50 in series [2] (ccrf-cem) is greater than 100 µM.

Take `CCCCCCCCCCCCCCCCOC(=O)Oc1ccc(COP(=O)(OCc2ccc(OC(=O)CC)cc2)OP(=O)(O)OP(=O)(O)OC[C@@H]2O[C@H](n3cc(F)c(N)nc3=O)CS2)cc1.N.N` (some centres not stated): the half-life in series [3] is 1.88 days; in series [4], 89.4 min; in the series on pig liver esterase, 156 min. The EC50 in series [1] was found to be 26 nM. Besides, the CC50 in series [2] (CEM/0 cells) was 35 µM.

Take `O=c1[nH]c(=O)n([C@H]2C[C@H](F)[C@@H](CO)O2)cc1Cl` [RALURIDINE]: in series [1], the EC50 is greater than 250000 nM. Besides, the CC50 in series [2] (CEM/0 cells) is 188 µM.
